Results: patent publication US20100056595A1, “Pyrazole Derivatives as P2X7 Modulators” (Glaxo Group Limited, priority 2007, published 2010)

These compounds were tested against T1, human P2X7 receptor (Homo sapiens, UniProt Q99572) (assay: Ethidium Accumulation Assay). Settings: HEK293 cells expressing human recombinant P2X7 receptors; blocking ATP (1 mM) responses; read-out: pIC50 for human P2X7 receptor antagonist activity in the Ethidium Accumulation Assay (converted).
T1 construct: expressed in transfected cells; host or cells: HEK293
T1 sequence (Q99572 1-595): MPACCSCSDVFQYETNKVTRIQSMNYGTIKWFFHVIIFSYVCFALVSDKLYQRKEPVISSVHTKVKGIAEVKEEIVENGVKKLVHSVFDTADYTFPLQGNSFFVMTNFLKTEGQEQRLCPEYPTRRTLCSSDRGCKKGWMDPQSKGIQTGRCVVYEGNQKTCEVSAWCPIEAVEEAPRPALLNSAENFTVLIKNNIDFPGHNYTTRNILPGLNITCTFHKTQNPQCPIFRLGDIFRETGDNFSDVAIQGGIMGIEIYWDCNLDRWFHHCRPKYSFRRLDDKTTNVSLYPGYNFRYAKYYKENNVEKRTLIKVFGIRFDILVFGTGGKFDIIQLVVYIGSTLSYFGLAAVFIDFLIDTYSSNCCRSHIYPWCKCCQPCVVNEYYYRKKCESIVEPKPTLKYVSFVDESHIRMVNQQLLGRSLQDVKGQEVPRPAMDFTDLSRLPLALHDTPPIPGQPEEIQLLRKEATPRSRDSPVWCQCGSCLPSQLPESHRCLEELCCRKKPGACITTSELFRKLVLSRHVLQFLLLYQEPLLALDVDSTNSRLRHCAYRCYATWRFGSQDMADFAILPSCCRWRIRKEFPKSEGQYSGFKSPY
Assay type: cell-based
Protocol: Ethidium Accumulation Assay
Studies were performed using NaCl assay buffer of the following composition (in mM): 140 mM NaCl, HEPES 10, N-methyl-D-glucamine 5, KCl 5.6, D-glucose 10, CaCl2 0.5 (pH 7.4). HEK293 cells, expressing human recombinant P2X7 receptors, were grown in poly-L-lysine pretreated 96 well plates for 18-24 h. […] The cells were washed twice with 350 μl of assay buffer before addition of 50 μl of antagonist. The cells were then incubated at room temperature (19-21° C.) for 30 min before addition of ATP and ethidium (100 μM final assay concentration). The ATP concentration was chosen to be close to the EC80 for the receptor type and was 1 mM for studies on the human P2X7 receptor. Incubations were continued for 8 or 16 min and were terminated by addition of 25 μl of 1.3M sucrose containing 5 mM of the P2X7 receptor antagonist reactive black 5 (Aldrich). Cellular accumulation of ethidium was determined by measuring fluorescence (excitation wavelength of 530nm and emission wavelength of 620 nm) from below the plate with a Canberra Packard Fluorocount (Pangbourne, UK). Antagonist pIC50 values for blocking ATP responses were determined using iterative curve fitting techniques.

IC50 [nM]	SMILES
≤ 100	Cn1ncc(F)c1CC(=O)NCc1cccc(C(F)(F)F)c1Cl [Example 8, N-{[2-chloro-3-(trifluoromethyl)phenyl]methyl}-2-(4-fluoro-1-methyl-1H-pyrazol-5-yl)acetamide]
≤ 100	Cn1ncc(Br)c1CC(=O)NCc1cccc(C(F)(F)F)c1Cl [Example 7, 2-(4-Bromo-1-methyl-1H-pyrazol-5-yl)-N-{[2-chloro-3-(trifluoromethyl)phenyl]methyl}acetamide]
≤ 100	Cc1cnn(C)c1CC(=O)NCc1cccc(C(F)(F)F)c1Cl [Example 2, N-{[2-chloro-3-(trifluoromethyl)phenyl]methyl}-2-(1,4-dimethyl-1H-pyrazol-5-yl)acetamide]
≤ 100	Cn1ncc(Cl)c1CC(=O)NCc1ccc(F)c(F)c1Cl [Example 15, N-[(2-Chloro-3,4-difluorophenyl)methyl]-2-(4-chloro-1-methyl-1H-pyrazol-5-yl)acetamide]
≤ 100	Cn1ncc(Cl)c1CC(=O)NCc1ccc(F)cc1Cl [Example 14, N-[(2-Chloro-4-fluorophenyl)methyl]-2-(4-chloro-1-methyl-1H-pyrazol-5-yl)acetamide]
≤ 100	Cc1cnn(C)c1CC(=O)NCc1ccc(Cl)cc1Cl [Example 10]
≤ 100	Cc1cnn(C)c1CC(=O)NCc1ccc(F)c(F)c1Cl [Example 4, N-[(2-chloro-3,4-difluorophenyl)methyl]-2-(1,4-dimethyl-1H-pyrazol-5-yl)acetamide]
≤ 100	Cn1ncc(I)c1CC(=O)NCc1ccc(Cl)cc1Cl [Example 20, N-[(2,4-Dichlorophenyl)methyl]-2-(4-iodo-1-methyl-1H-pyrazol-5-yl)acetamide]
≤ 100	Cn1nccc1CC(=O)NCc1cccc(C(F)(F)F)c1Cl [Example 5, N-{[2-chloro-3-(trifluoromethyl)phenyl]methyl}-2-(1-methyl-1H-pyrazol-5-yl)acetamide]
≤ 100	Cn1ncc(Cl)c1CC(=O)NCc1cccc(C(F)(F)F)c1Cl [Example 6, 2-(4-chloro-1-methyl-1H-pyrazol-5-yl)-N-{[2-chloro-3-(trifluoromethyl)phenyl]methyl}acetamide]
≤ 100	Cc1cnn(CC(F)(F)F)c1CC(=O)NCc1ccc(F)c(F)c1Cl [Example 3, N-[(2-chloro-3,4-difluorophenyl)methyl]-2-[4-methyl-1-(2,2,2-trifluoroethyl)-1H-pyrazol-5-yl]acetamide]
≤ 100	Cn1ncc(F)c1CC(=O)NCc1ccc(F)c(F)c1Cl [Example 18, N-[(2-Chloro-3,4-difluorophenyl)methyl]-2-(4-fluoro-1-methyl-1H-pyrazol-5-yl)acetamide]
≤ 100	Cn1ncc(Cl)c1CC(=O)NCc1ccc(Cl)cc1Cl [Example 16, 2-(4-Chloro-1-methyl-1H-pyrazol-5-yl)-N-[(2,4-dichlorophenyl)methyl]acetamide]
≤ 100	Cn1ncc(F)c1CC(=O)NCc1ccc(Cl)cc1Cl [Example 19, N-[(2,4-Dichlorophenyl)methyl]-2-(4-fluoro-1-methyl-1H-pyrazol-5-yl)acetamide]
